Converted amounts (≈) assume the structure as drawn. Like-named read-outs stand apart in the source and are kept apart here. Positions of bridges follow the written chain, without caps; N, C: chain ends. Non-standard residues stand in square brackets, D forms with d. Residues, ends and D or L forms follow the SMILES beside them. Lys(N3) = [N-]=[N+]=NCCCC[C@H](N)C(=O)O; R8 = C=CCCCCCC[C@@](C)(N)C(=O)O; Cba = N[C@@H](CC1CCC1)C(=O)O; S5 = C=CCCC[C@](C)(N)C(=O)O; βAla = NCCC(=O)O
What was measured:
[1] = Lactate dehydrogenase (LDH) release assay; type: cell-based
How it was run: (§1)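 HCT116 cells stably carrying a p53-responsive β-lactamase reporter were seeded at 8000 cells per well with a final DMSO level of 0.5%. Membrane integrity was assessed by lactate dehydrogenase release using a homogeneous fluorometric kit. Values are geometric means of at least three biological replicates.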

[2] = Solubility assay (kinetic solubility, PBS pH 7); type: physicochemical; conditions: for solubility kinetic: read-out: Solubility
How it was run: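 Reference standards were made by diluting the 10 mM stock to 100 µM in acetonitrile:methanol:DMSO 10:80:10. Solubility in µM was calculated as the sample peak area divided by the standard peak area, multiplied by the standard concentration.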

[3] = in vitro
How it was run: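 Azido-peptide permeability was read as loss of NanoBRET signal (donor 450 nm, acceptor 610 nm) after adding NanoBret618-azide at 10 μM final.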

[4] = physchem
[5] = Experimental LogD (partition coefficient); conditions: for logD: not stated, Partition Coeff LogD
[6] = test system: HCT116 cells; assay: Lactate dehydrogenase (LDH) release assay; type: cell-based
How it was run: as §1

[7] = pH 7, aqueous buffer, kinetic from dmso stock, pH 7, PBS
[8] = Nanoclick permeability assay EC50

Structure (SMILES) | EC50 ([1]; LDH: Cytotoxicity assay EC50) [nM] | solubility kinetic [2, 7] [µM] | cell entry EC50 [3, 8] [nM] | EPSA [4] [A^2] | logD [5] | EC50 ([1]; 0% FBS 4Hr, read-out: LDH: Cytotoxicity assay EC50) [nM] | EC50 ([1]; 10% FBS 4Hr, read-out: LDH: Cytotoxicity assay EC50) [nM] | LDH: Cytotoxicity assay % Effect ([6]; 0% FBS 4Hr) [%] | LDH: Cytotoxicity assay % Effect ([6]; 10% FBS 4Hr) [%] | solubility kinetic [2] [µM] | cell entry EC50 [3] [nM] | Solubility ([2]; pH 7, PBS) | Partition Coeff LogD [5]
CC(=O)N[C@@H](CCCCN=[N+]=[N-])C(=O)NCCC(=O)N[C@@H](CC(C)C)C(=O)N[C@H](C(=O)N[C@@H](Cc1ccccc1)C(=O)N[C@]1(C)CCCCCCC=CCCC[C@@](C)(C(=O)N[C@@H](CO)C(=O)N[C@@H](C)C(=O)N[C@@H](C)C(N)=O)NC(=O)[C@H](CC2CCC2)NC(=O)C(C)(C)NC(=O)[C@H](C)NC(=O)[C@H](Cc2c[nH]c3ccccc23)NC(=O)[C@H](Cc2ccc(O)cc2)NC(=O)[C@H](CCC(=O)O)NC1=O)[C@@H](C)O [MP-171] | > 50000 | 34 (≈ 65.5 µg/mL) | 195 | 222 | 3 |  |  |  |  |  |  |  | 
CC(=O)N[C@@H](CCCCN=[N+]=[N-])C(=O)NCCC(=O)N[C@@H](CCCNC(=N)N)C(=O)N[C@H](C(=O)N[C@@H](Cc1ccccc1)C(=O)N[C@]1(C)CCCCCCC=CCCC[C@@](C)(C(=O)N[C@@H](CO)C(=O)N[C@@H](C)C(=O)N[C@@H](CC(C)C)C(N)=O)NC(=O)[C@H](CC2CCC2)NC(=O)[C@H](CCC(N)=O)NC(=O)[C@H](CC(C)C)NC(=O)[C@H](Cc2c[nH]c3ccccc23)NC(=O)[C@H](Cc2ccc(O)cc2)NC(=O)[C@H](CCC(=O)O)NC1=O)[C@@H](C)O [MP-541] (Ac-[Lys(N3)][βAla]RTF[R8]EYWLQ[Cba][S5]SAL-NH2; staple 6-13) | > 50600 | 4 (≈ 8.39 µg/mL) | 210 | 224 | 3.58 |  |  |  |  |  |  |  | 
CC(=O)N[C@@H](CCCCN=[N+]=[N-])C(=O)NCCC(=O)N[C@@H](CC(C)C)C(=O)N[C@H](C(=O)N[C@@H](Cc1ccccc1)C(=O)N[C@]1(C)CCCCCCC=CCCC[C@@](C)(C(=O)N[C@@H](C)C(=O)N[C@@H](C)C(=O)N[C@@H](C)C(N)=O)NC(=O)[C@H](CC2CCC2)NC(=O)[C@H](CCC(N)=O)NC(=O)[C@H](C)NC(=O)[C@H](Cc2c[nH]c3ccccc23)NC(=O)[C@H](Cc2ccc(O)cc2)NC(=O)[C@H](CCC(=O)O)NC1=O)[C@@H](C)O [MP-8956, AZIDE-ATSP-7041 (S12A)] (Ac-[Lys(N3)][βAla]LTF[R8]EYWAQ[Cba][S5]AAA-NH2; staple 6-13) |  | 108 (≈ 211 µg/mL) |  | 217 |  | > 50000 | > 50000 | 18.05 | 3.25 | 108 (≈ 211 µg/mL) | 411 |  | 
CC(=O)N[C@@H](CCCCN=[N+]=[N-])C(=O)NCCC(=O)N[C@@H](CCCNC(=N)N)C(=O)N[C@H](C(=O)N[C@@H](Cc1ccccc1)C(=O)N[C@]1(C)CCCCCCC=CCCC[C@@](C)(C(=O)N[C@@H](CO)C(=O)N[C@@H](CCCNC(=N)N)C(=O)N[C@@H](C)C(N)=O)NC(=O)[C@H](CC2CCC2)NC(=O)[C@H](CCC(N)=O)NC(=O)[C@H](CCCNC(=N)N)NC(=O)[C@H](Cc2c[nH]c3ccccc23)NC(=O)[C@H](Cc2ccc(O)cc2)NC(=O)[C@H](CCC(=O)O)NC1=O)[C@@H](C)O [MP-539] (Ac-[Lys(N3)][βAla]RTF[R8]EYWRQ[Cba][S5]SRA-NH2; staple 6-13) | 13400 | 97.5 (≈ 213 µg/mL) | 293 | 222 | 2.4 |  |  |  |  |  |  |  | 
CC(C)C[C@@H]1NC(=O)[C@H](C)NC(=O)[C@H](Cc2c[nH]c3ccccc23)NC(=O)[C@H](Cc2ccc(O)cc2)NC(=O)[C@H](CCC(=O)O)NC(=O)[C@](C)(NC(=O)[C@H](Cc2ccccc2)NC(=O)[C@H](CO)NC(=O)[C@@H](NC(=O)[C@H](CO)NC(=O)CNC(=O)[C@H](CO)NC(=O)[C@@H](N)CCCCN=[N+]=[N-])[C@@H](C)O)CCCCCCC=CCCC[C@@](C)(C(N)=O)NC(=O)[C@H](CC(C)C)NC1=O [MP-75496] | > 50600 | 10 (≈ 18.1 µg/mL) | 518 | 236 | 2.46 |  |  |  |  |  |  |  | 
CC(=O)N[C@@H](CCCCN=[N+]=[N-])C(=O)NCCC(=O)N[C@@H](CCCNC(=N)N)C(=O)N[C@H](C(=O)N[C@@H](Cc1ccccc1)C(=O)N[C@]1(C)CCCCCCC=CCCC[C@@](C)(C(=O)N[C@@H](CCCCN)C(=O)N[C@@H](C)C(=O)N[C@@H](C)C(N)=O)NC(=O)[C@H](CC2CCC2)NC(=O)[C@H](CCCNC(=N)N)NC(=O)[C@H](C)NC(=O)[C@H](Cc2c[nH]c3ccccc23)NC(=O)[C@H](Cc2ccc(O)cc2)NC(=O)[C@H](CCC(=O)O)NC1=O)[C@@H](C)O [MP-537] (Ac-[Lys(N3)][βAla]RTF[R8]EYWAR[Cba][S5]KAA-NH2; staple 6-13) | 7290 | 140 (≈ 292 µg/mL) | 87.9 | 224 | 2.48 |  |  |  |  |  |  |  | 
CC(=O)N[C@@H](CCCCN=[N+]=[N-])C(=O)NCCC(=O)N[C@@H](CC(C)C)C(=O)N[C@@H](Cc1c[nH]c2ccccc12)C(=O)N[C@@H](Cc1ccccc1)C(=O)N[C@]1(C)CCCCCCC=CCCC[C@@](C)(C(=O)N[C@@H](CO)C(=O)N[C@@H](C)C(=O)N[C@@H](C)C(N)=O)NC(=O)[C@H](CC2CCC2)NC(=O)[C@H](CCC(N)=O)NC(=O)[C@H](C)NC(=O)[C@H](Cc2c[nH]c3ccccc23)NC(=O)[C@H](Cc2ccc(O)cc2)NC(=O)[C@H](CCC(=O)O)NC1=O [MP-1184] (Ac-[Lys(N3)][βAla]LWF[R8]EYWAQ[Cba][S5]SAA-NH2; staple 6-13) | > 50000 | 28.5 (≈ 58.6 µg/mL) | 360 | 239 | 3.21 |  |  |  |  |  |  |  | 
CC(=O)N[C@@H](CCCCN=[N+]=[N-])C(=O)NCCC(=O)N[C@@H](CC(C)C)C(=O)N[C@H](C(=O)N[C@@H](Cc1ccccc1)C(=O)N[C@]1(C)CCCCCCC=CCCC[C@@](C)(C(=O)N[C@@H](CO)C(=O)N[C@@H](Cc2ccccc2)C(=O)N[C@@H](Cc2ccccc2)C(N)=O)NC(=O)[C@H](CC2CCC2)NC(=O)[C@H](CCC(N)=O)NC(=O)[C@H](C)NC(=O)[C@H](Cc2c[nH]c3ccccc23)NC(=O)[C@H](Cc2ccc(O)cc2)NC(=O)[C@H](Cc2c[nH]c3ccccc23)NC1=O)[C@@H](C)O [MP-542] (Ac-[Lys(N3)][βAla]LTF[R8]WYWAQ[Cba][S5]SFF-NH2; staple 6-13) | > 50600 |  | 93.2 | 242 | 4.46 |  |  |  |  |  |  | Poorly Behaved | 
CC(=O)N[C@@H](CCCCN=[N+]=[N-])C(=O)NCCC(=O)N(C)[C@@H](CC(C)C)C(=O)N[C@H](C(=O)N[C@@H](Cc1ccccc1)C(=O)N[C@]1(C)CCCCCCC=CCCC[C@@](C)(C(=O)N[C@@H](CO)C(=O)N[C@@H](C)C(=O)N[C@@H](C)C(N)=O)NC(=O)[C@H](CC2CCC2)NC(=O)[C@H](CCC(N)=O)NC(=O)[C@H](C)NC(=O)[C@H](Cc2c[nH]c3ccccc23)NC(=O)[C@H](Cc2ccc(O)cc2)NC(=O)[C@H](CCC(=O)O)NC1=O)[C@@H](C)O [MP-189] | > 50000 | 122 (≈ 242 µg/mL) | 865 | 226 | 3.04 |  |  |  |  |  |  |  | 
CC(=O)N[C@@H](CCCCN=[N+]=[N-])C(=O)NCCC(=O)N[C@@H](CC(C)C)C(=O)N[C@H](C(=O)N[C@@H](Cc1ccccc1)C(=O)N[C@]1(C)CCCCCCC=CCCC[C@@](C)(C(=O)N[C@@H](CO)C(=O)N[C@@H](Cc2ccccc2)C(=O)N[C@@H](Cc2ccccc2)C(N)=O)NC(=O)[C@H](CC2CCC2)NC(=O)[C@H](CCC(N)=O)NC(=O)[C@H](CO)NC(=O)[C@H](Cc2c[nH]c3ccccc23)NC(=O)[C@H](Cc2ccc(O)cc2)NC(=O)[C@H](CCC(=O)O)NC1=O)[C@@H](C)O [MP-545] (Ac-[Lys(N3)][βAla]LTF[R8]EYWSQ[Cba][S5]SFF-NH2; staple 6-13) | > 50600 |  | 137 | 241 |  |  |  |  |  |  |  | Poorly Behaved | Poorly Behaved
CC(=O)N[C@@H](CCCCN=[N+]=[N-])C(=O)NCCC(=O)N[C@@H](CC(C)C)C(=O)N[C@H](C(=O)N[C@@H](Cc1ccccc1)C(=O)N[C@]1(C)CCCCCCC=CCCC[C@@](C)(C(=O)NC(C)(C)C(=O)N[C@@H](C)C(=O)N[C@@H](C)C(N)=O)NC(=O)[C@H](CC2CCC2)NC(=O)[C@H](CCC(N)=O)NC(=O)[C@H](C)NC(=O)[C@H](Cc2c[nH]c3ccccc23)NC(=O)[C@H](Cc2ccc(O)cc2)NC(=O)[C@H](CCC(=O)O)NC1=O)[C@@H](C)O [MP-172] |  | 140 (≈ 276 µg/mL) | 123 | 225 | 3.17 |  |  |  |  |  |  |  | 
